The target in this assay is T1, Recombinant human JARID1B/KDM5B (Homo sapiens, UniProt Q9UGL1).
T1 construct: purchased Active Motif 31432; host or cells: Sf9 insect cells
T1 sequence (Q9UGL1 whole entry): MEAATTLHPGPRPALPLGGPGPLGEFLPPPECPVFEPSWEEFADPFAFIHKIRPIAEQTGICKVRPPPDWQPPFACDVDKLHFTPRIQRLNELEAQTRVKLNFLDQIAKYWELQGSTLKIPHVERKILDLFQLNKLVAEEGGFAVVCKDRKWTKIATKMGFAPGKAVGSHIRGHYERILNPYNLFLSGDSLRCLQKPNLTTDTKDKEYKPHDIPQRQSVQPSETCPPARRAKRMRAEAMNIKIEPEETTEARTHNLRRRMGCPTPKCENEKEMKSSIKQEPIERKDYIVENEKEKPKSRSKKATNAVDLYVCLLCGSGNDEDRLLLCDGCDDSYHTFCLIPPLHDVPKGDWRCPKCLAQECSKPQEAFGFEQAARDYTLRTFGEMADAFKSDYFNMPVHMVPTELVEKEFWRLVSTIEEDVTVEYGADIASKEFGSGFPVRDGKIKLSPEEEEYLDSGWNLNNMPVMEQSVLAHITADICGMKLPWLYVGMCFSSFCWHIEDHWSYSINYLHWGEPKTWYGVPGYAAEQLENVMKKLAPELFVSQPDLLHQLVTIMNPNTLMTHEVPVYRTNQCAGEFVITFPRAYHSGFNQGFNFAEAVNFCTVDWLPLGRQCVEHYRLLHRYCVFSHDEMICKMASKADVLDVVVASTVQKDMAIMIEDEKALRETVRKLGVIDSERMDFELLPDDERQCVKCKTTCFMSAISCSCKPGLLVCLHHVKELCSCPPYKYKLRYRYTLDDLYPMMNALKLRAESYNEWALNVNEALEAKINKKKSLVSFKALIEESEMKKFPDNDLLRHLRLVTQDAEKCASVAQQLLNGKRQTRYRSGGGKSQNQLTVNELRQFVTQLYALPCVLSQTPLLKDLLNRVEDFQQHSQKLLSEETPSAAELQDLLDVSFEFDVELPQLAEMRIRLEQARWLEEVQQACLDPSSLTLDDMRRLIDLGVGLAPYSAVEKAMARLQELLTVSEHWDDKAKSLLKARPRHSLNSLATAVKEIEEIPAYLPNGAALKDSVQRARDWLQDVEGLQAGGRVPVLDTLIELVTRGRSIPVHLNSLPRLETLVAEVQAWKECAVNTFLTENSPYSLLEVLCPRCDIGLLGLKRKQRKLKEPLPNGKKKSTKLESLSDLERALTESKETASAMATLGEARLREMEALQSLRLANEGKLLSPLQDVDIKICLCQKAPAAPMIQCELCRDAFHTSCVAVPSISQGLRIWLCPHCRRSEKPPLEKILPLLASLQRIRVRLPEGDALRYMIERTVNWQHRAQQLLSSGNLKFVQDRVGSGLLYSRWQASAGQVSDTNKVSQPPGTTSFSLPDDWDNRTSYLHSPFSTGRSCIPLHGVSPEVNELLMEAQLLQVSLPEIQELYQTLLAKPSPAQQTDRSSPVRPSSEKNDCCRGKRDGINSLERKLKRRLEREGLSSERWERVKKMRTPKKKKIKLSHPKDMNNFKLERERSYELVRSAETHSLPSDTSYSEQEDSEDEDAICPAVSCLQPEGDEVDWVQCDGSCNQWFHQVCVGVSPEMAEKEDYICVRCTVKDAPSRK
Kind of assay: LANCE Ultra TR-FRET JARID1B (KDM5B) demethylase inhibition assay. The assay is classed as biochemical. As to conditions: 0.1 uM of test-compounds, FLAG-JARID1B, 500 nM biotinylated H3K4me3 peptide substrate, 30 min at room temperature. The method, boiled down: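 FLAG-tagged JARID1B from Sf9 cells, pre-incubated 5 min with 0.1 uM compound (1% DMSO), then 500 nM biotinylated H3K4me3 peptide, 500 uM 2-OG, 25 uM Fe(II), 2 mM ascorbate in pH 7.5 Hepes buffer. After 30 min at room temperature, H3K4me2/1 product detected by TR-FRET (665/590 nm ratio).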
In general terms: TR-FRET usually uses a lanthanide donor and a delayed reading to cut background.
As a reminder, the inhibition is the change of the read-out against control, counted positive when it falls. Turning to `O=c1[nH]c(COc2ccc(F)c(Cl)c2)nc2c(-c3csc(NCCCCN4CCCC4)n3)nccc12` [Compound 119, 2-((3-chloro-4-fluorophenoxy)methyl)-8-(2-((4-(pyrrolidin-1-yl)butyl)amino)thiazol-4-yl)pyrido[3,4-d]pyrimidin-4(3H)-one], the inhibition at 0.1 µM was 20 to 50%.

Regarding `CC(C)N(CCCCCNc1nc(-c2nccc3c(=O)[nH]c(COc4ccc(F)c(Cl)c4)nc23)cs1)C(C)C` [Compound 120, 2-((3-chloro-4-fluorophenoxy)methyl)-8-(2-((5-(diisopropylamino)pentyl)amino)thiazol-4-yl)pyrido[3,4-d]pyrimidin-4(3H)-one], the inhibition at 0.1 µM was 20 to 50%.

On to `CCC[C@H](CO)Nc1nc(-c2nccc3c(=O)[nH]c(COc4ccc(F)c(Cl)c4)nc23)cs1` [Compound 121, (R)-2-((3-chloro-4-fluorophenoxy)methyl)-8-(2-((1-hydroxypentan-2-yl)amino)thiazol-4-yl)pyrido[3,4-d]pyrimidin-4(3H)-one], for which the inhibition at 0.1 µM was 20 to 50%.

For `CCOC(=O)c1nc(-c2nccc3c(=O)[nH]c(COc4ccc(F)c(Cl)c4)nc23)cs1` [Compound 122, ethyl 4-(2-((3-chloro-4-fluorophenoxy)methyl)-4-oxo-3,4-dihydropyrido[3,4-d]pyrimidin-8-yl)thiazole-2-carboxylate], the inhibition at 0.1 µM was below 20%.

Consider `CC(CNc1nc(-c2nccc3c(=O)[nH]c(COc4ccc(F)c(Cl)c4)nc23)cs1)Oc1ccccc1` (centres unmarked) [Compound 123, 2-((3-chloro-4-fluorophenoxy)methyl)-8-(2-((2-phenoxypropyl)amino)thiazol-4-yl)pyrido[3,4-d]pyrimidin-4(3H)-one], for which the inhibition at 0.1 µM was below 20%.

Take `O=C(Nc1nc(-c2nccc3c(=O)[nH]c(COc4ccc(F)c(Cl)c4)nc23)cs1)c1ccccc1` [Compound 124, N-(4-(2-((3-chloro-4-fluorophenoxy)methyl)-4-oxo-3,4-dihydropyrido[3,4-d]pyrimidin-8-yl)thiazol-2-yl)benzamide]: the inhibition at 0.1 µM is below 20%.

In the case of `O=c1[nH]c(COc2ccc(F)cc2)nc2c(-c3csc(NCCO)n3)nccc12` [Compound 125, 2-((4-fluorophenoxy)methyl)-8-(2-((2-hydroxyethyl)amino)thiazol-4-yl)pyrido[3,4-d]pyrimidin-4(3H)-one], the inhibition at 0.1 µM was at least 50%.

Take `CN(C)CCNc1nc(-c2nccc3c(=O)[nH]c(COc4ccc(F)cc4)nc23)cs1` [Compound 126, 8-(2-((2-(dimethylamino)ethyl)amino)thiazol-4-yl)-2-((4-fluorophenoxy)methyl) pyrido[3,4-d]pyrimidin-4(3H)-one]: the inhibition at 0.1 µM is at least 50%.

For the compound `CN1CCC(Nc2nc(-c3nccc4c(=O)[nH]c(COc5ccc(F)cc5)nc34)cs2)CC1` [Compound 127, 2-((4-fluorophenoxy)methyl)-8-(2-((1-methylpiperidin-4-yl)amino)thiazol-4-yl)pyrido[3,4-d]pyrimidin-4(3H)-one], the inhibition at 0.1 µM was at least 50%.

Consider `O=c1[nH]c(COc2ccc(F)cc2)nc2c(-c3csc(NC4CCN(Cc5ccccc5)CC4)n3)nccc12` [Compound 128, 8-(2-((1-benzylpiperidin-4-yl)amino)thiazol-4-yl)-2-((4-fluorophenoxy)methyl) pyrido[3,4-d]pyrimidin-4(3H)-one], for which the inhibition at 0.1 µM is below 20%.

Regarding `O=c1[nH]c(COc2cc(F)cc(F)c2)nc2c(-c3csc(NCCO)n3)nccc12` [Compound 129, 2-((3,5-difluorophenoxy)methyl)-8-(2-((2-hydroxyethyl)amino)thiazol-4-yl)pyrido[3,4-d]pyrimidin-4(3H)-one], the inhibition at 0.1 µM was below 20%.

In the case of `CN(C)CCNc1nc(-c2nccc3c(=O)[nH]c(COc4cc(F)cc(F)c4)nc23)cs1` [Compound 130, 2-((3,5-difluorophenoxy)methyl)-8-(2-((2-(dimethylamino)ethyl)amino)thiazol-4-yl)pyrido[3,4-d]pyrimidin-4(3H)-one], the inhibition at 0.1 µM is at least 50%.

On to `CN1CCC(Nc2nc(-c3nccc4c(=O)[nH]c(COc5cc(F)cc(F)c5)nc34)cs2)CC1` [Compound 131, 2-((3,5-difluorophenoxy)methyl)-8-(2-((1-methylpiperidin-4-yl)amino)thiazol-4-yl)pyrido[3,4-d]pyrimidin-4(3H)-one], for which the inhibition at 0.1 µM was at least 50%.

Consider `O=c1[nH]c(COc2ccccc2Cl)nc2c(-c3csc(NCCO)n3)nccc12` [Compound 132, 2-((2-chlorophenoxy)methyl)-8-(2-((2-hydroxyethyl)amino)thiazol-4-yl)pyrido[3,4-d]pyrimidin-4(3H)-one], for which the inhibition at 0.1 µM fell in the range of 20 to 50%.

For the compound `O=c1[nH]c(COc2cccc(Cl)c2)nc2c(-c3csc(NCCO)n3)nccc12` [Compound 133, 2-((3-chlorophenoxy)methyl)-8-(2-((2-hydroxyethyl)amino)thiazol-4-yl)pyrido[3,4-d]pyrimidin-4(3H)-one], the inhibition at 0.1 µM was 20 to 50%.

As to `O=c1[nH]c(COc2cc(Cl)cc(Cl)c2)nc2c(-c3csc(NCCO)n3)nccc12` [Compound 134, 2-((3,5-dichlorophenoxy)methyl)-8-(2-((2-hydroxyethyl)amino)thiazol-4-yl)pyrido[3,4-d]pyrimidin-4(3H)-one], the inhibition at 0.1 µM was in the range of 20 to 50%.

For the compound `O=c1[nH]c(COc2ccc(Cl)cc2Cl)nc2c(-c3csc(NCCO)n3)nccc12` [Compound 135, 2-((2,4-dichlorophenoxy)methyl)-8-(2-((2-hydroxyethyl)amino)thiazol-4-yl)pyrido[3,4-d]pyrimidin-4(3H)-one], the inhibition at 0.1 µM lay within 20 to 50%.

`O=c1[nH]c(COc2ccc(Cl)c(Cl)c2)nc2c(-c3csc(NCCO)n3)nccc12` [Compound 136, 2-((3,4-dichlorophenoxy)methyl)-8-(2-((2-hydroxyethyl)amino)thiazol-4-yl)pyrido[3,4-d]pyrimidin-4(3H)-one]: the inhibition at 0.1 µM was at least 50%.

For the compound `Cc1nc2c(-c3csc(NCCO)n3)nccc2c(=O)[nH]1` [Compound 137, 8-(2-((2-hydroxyethyl)amino)thiazol-4-yl)-2-methylpyrido [3,4-d]pyrimidin-4(3H)-one], the inhibition at 0.1 µM is below 20%.

Turning to `CC(C)c1nc2c(-c3csc(NCCO)n3)nccc2c(=O)[nH]1` [Compound 138, 8-(2-((2-hydroxyethyl)amino)thiazol-4-yl)-2-isopropylpyrido[3,4-d]pyrimidin-4(3H)-one], the inhibition at 0.1 µM is below 20%.

As to `O=c1[nH]c(Cc2ccccc2)nc2c(-c3csc(NCCO)n3)nccc12` [Compound 139, 2-benzyl-8-(2-((2-hydroxyethyl)amino)thiazol-4-yl)pyrido[3,4-d]pyrimidin-4(3H)-one], the inhibition at 0.1 µM was below 20%.

Consider `CN(C)CCNc1nc(-c2nccc3c(=O)[nH]c(Cc4ccccc4)nc23)cs1` [Compound 140, 2-benzyl-8-(2-((2-(dimethylamino)ethyl)amino)thiazol-4-yl)pyrido[3,4-d]pyrimidin-4(3H)-one], for which the inhibition at 0.1 µM lay in the range of 20 to 50%.

With `CC(c1ccccc1)c1nc2c(-c3csc(NCCO)n3)nccc2c(=O)[nH]1` (centres unmarked) [Compound 141, 8-(2-((2-hydroxyethyl)amino)thiazol-4-yl)-2-(1-phenylethyl)pyrido[3,4-d]pyrimidin-4(3H)-one], the inhibition at 0.1 µM was below 20%.

With `O=c1[nH]c(COCc2ccccc2)nc2c(-c3csc(NCCO)n3)nccc12` [Compound 142, 2-((benzyloxy)methyl)-8-(2-((2-hydroxyethyl)amino)thiazol-4-yl)pyrido[3,4-d]pyrimidin-4(3H)-one], the inhibition at 0.1 µM lay in the range of 20 to 50%.

On to `CCC(O)CNc1nc(-c2nccc3c(=O)[nH]c(COCc4ccccc4)nc23)cs1` (centres unmarked) [Compound 143, 2-((benzyloxy)methyl)-8-(2-((2-hydroxybutyl)amino)thiazol-4-yl)pyrido[3,4-d]pyrimidin-4(3H)-one], for which the inhibition at 0.1 µM is 20 to 50%.

As to `O=c1[nH]c(COCc2ccccc2)nc2c(-c3csc(NC4CCN(Cc5ccccc5)CC4)n3)nccc12` [Compound 144, 2-((benzyloxy)methyl)-8-(2-((1-benzylpiperidin-4-yl)amino)thiazol-4-yl)pyrido[3,4-d]pyrimidin-4(3H)-one], the inhibition at 0.1 µM is below 20%.

For the compound `O=c1[nH]c(COCc2ccccc2)nc2c(-c3csc(NCC4CCN(Cc5ccccc5)CC4)n3)nccc12` [Compound 145, 2-((benzyloxy)methyl)-8-(2-(((1-benzylpiperidin-4-yl)methyl)amino)thiazol-4-yl)pyrido[3,4-d]pyrimidin-4(3H)-one], the inhibition at 0.1 µM was below 20%.

As for `COCCNc1nc(-c2nccc3c(=O)[nH]c(COCc4ccccc4)nc23)cs1` [Compound 146, 2-((benzyloxy)methyl)-8-(2-((2-methoxyethyl)amino)thiazol-4-yl)pyrido[3,4-d]pyrimidin-4(3H)-one], the inhibition at 0.1 µM is below 20%.

For `O=c1[nH]c(COCc2ccccc2)nc2c(-c3csc(NCCCO)n3)nccc12` [Compound 147, 2-((benzyloxy)methyl)-8-(2-((3-hydroxypropyl)amino)thiazol-4-yl)pyrido[3,4-d]pyrimidin-4(3H)-one], the inhibition at 0.1 µM was below 20%.

In the case of `CN(C)CCNc1nc(-c2nccc3c(=O)[nH]c(COCc4ccccc4)nc23)cs1` [Compound 148, 2-((benzyloxy)methyl)-8-(2-((2-(dimethylamino)ethyl)amino)thiazol-4-yl)pyrido[3,4-d]pyrimidin-4(3H)-one], the inhibition at 0.1 µM was below 20%.

As for `NCCNc1nc(-c2nccc3c(=O)[nH]c(COCc4ccccc4)nc23)cs1` [Compound 149, 8-(2-((2-aminoethyl)amino)thiazol-4-yl)-2-((benzyloxy)methyl)pyrido [3,4-d]pyrimidin-4(3H)-one], the inhibition at 0.1 µM fell in the range of 20 to 50%.

For `CN(C)CCCNc1nc(-c2nccc3c(=O)[nH]c(COCc4ccccc4)nc23)cs1` [Compound 150, 2-((benzyloxy)methyl)-8-(2-((3-(dimethylamino)propyl)amino)thiazol-4-yl)pyrido[3,4-d]pyrimidin-4(3H)-one], the inhibition at 0.1 µM was below 20%.

The values are drawn from US20170057955A1, “Pyridopyrimidinone Compounds for Modulating the Catalytic Activity of Histone Lysine Demethylases (KDMs)” (Dong-A Socio Holdings Co., Ltd., priority 2015, published 2017).
